Source: US20260355225A1 (priority 2022, published 2026)
In brackets after ≈: the same amount, converted by molar mass. Several values for one entry are separate records, joined by “and”; a condition that tells them apart may be missing. Identical values can stand only once.

Columns and labels:
[1] = Cytotoxicity of D-xylose, MTT assay, absence of viral infection (Example 1); assay type: cell-based; conditions: monkey, vero cells
Experimental: (§1) Cells (Vero E6) were used, with two modes of administration: either at the same time or 6 h before infection with SARS-CoV-2 (isolated early).
(§2) The readout for this test is CPE, so the infection will be stopped at 72 hpi (hours post-infection), and the compound will remain for the duration of the experiment. In parallel, the cytotoxicity of the same compound concentrations will be tested in the absence of viral infection.
(§3) The day before the experiment, the 8,000 cells/well are seeded in two 96-well plates (clear, Sarstedt), one for the antiviral study and one for the cytotoxicity study.
(§4) 134.4 μl of the 1 M composition is transferred to 1,465.6 μl of infection medium (=84 mM, twice the final maximum concentration).
(§5) Next, the cell support in the cytotoxicity plate is removed.
(§6) Immediately afterwards, 50 μl of undiluted infection medium is added to all the wells.
(§7) Next, 50 μl of infection medium without diluent is added to columns 4 to 6.
(§8) Next, the plate is incubated at 37 °C, 5% CO2 for 48 h.
(§9) After 72 h, when the CPE is evident, an MTT assay is performed for the antiviral and cytotoxicity plates.

[2] = system: Vero AD cells; experiment: as above; assay type: cell-based; conditions: 6 h pre-treatment
Experimental: as §1, §2, §3, §4, §5, §6, §7, §8, §9

[3] = according to Sigma cat #1.08689; cited from earlier work
[4] = system: cells; conditions: cited from earlier work
[5] = system: glycated hemoglobin (HbA1c); conditions: healthy person; cited from earlier work
[6] = D-xylose absorption tests; cited from earlier work
[7] = system: glycosaminoglycans; conditions: fibroblasts, keranocytes, CHO, BHK, BAE and other cells; cited from earlier work
[8] = Cytotoxicity of D-xylose alone or + insulin, MTT assay, absence of viral infection (Example 2); conditions: human, hela tzmbl cells
[9] = system: HeLa TZMBL cells; experiment: as above; conditions: for Cytotoxicity percentage / Viability percentage: 2880 min
[10] = Antiviral assay against HIV-1 NL4-3, percentage of infected cells by immunofluorescence (Example 2); conditions: human, hela tzmbl cells, Viability Percentages, D-xylose 104.000 mM, replicate wells
[11] = system: HIV-1 NL4-3; experiment: as above; conditions: Human immunodeficiency virus 1, NL43, 48 h
[12] = system: SARS-CoV-2; experiment: Antiviral assay, inhibition of virus-induced cytopathic effect (CPE) of SARS-CoV-2 by MTT assay (Example 1); conditions: for Viability percentage: 4320 min

## O=C[C@H](O)[C@@H](O)[C@H](O)CO [D-xylose]
[1]; 6 h pre-treatment, 0.328125 mM, read-out: Viability percentage
  viability at 328.125 µM: 130%
[1]; 6 h pre-treatment, 0.65625 mM, read-out: Viability percentage
  viability at 656.25 µM: 90.9%
[1]; 6 h pre-treatment, 1.3125 mM, read-out: Viability percentage
  viability at 1312.5 µM: 122%
[1]; 6 h pre-treatment, 2.625 mM, read-out: Viability percentage
  viability at 2625 µM: 108%
[1]; 6 h pre-treatment, 5.25 mM, read-out: Viability percentage
  viability at 5250 µM: 115%
[1]; 6 h pre-treatment, 10.5 mM, read-out: Viability percentage
  viability at 10500 µM: 109%
[1]; 6 h pre-treatment, 21 mM, read-out: Viability percentage
  viability at 21000 µM: 110%
[1]; 6 h pre-treatment, 42 mM, read-out: Viability percentage
  viability at 42000 µM: 108%
[1]; MTT, no virus
  CC50: > 42 mM
[2]; 0.328125 mM, 328.125 µM
  Viability percentage: 119.81%
[2]; 0.65625 mM, 656.25 µM
  Viability percentage: 100.84% and 108.33%
[2]; 1.3125 mM, 1312.5 µM
  Cytotoxicity percentage: −21.81% and −24.31% and −17.82%
  Viability percentage: 124.31% and 117.82%
[2]; 2.625 mM, 2625 µM
  Viability percentage: 118.32% and 114.82%
[2]; 5.25 mM, 5250 µM
  Cytotoxicity percentage: −15.32% and −18.81% and −10.83%
  Viability percentage: 118.81% and 110.83%
[2]; 10.5 mM, 10500 µM
  Cytotoxicity percentage: −9.33% and −10.83% and −6.33%
  Viability percentage: 110.83% and 106.33%
[2]; 21 mM, 21000 µM
  Cytotoxicity percentage: −9.83% and −10.33%
  Viability percentage: 110.33%
[2]; 42 mM, 42000 µM
  Cytotoxicity percentage: −7.83% and −9.83% and −3.34%
  Viability percentage: 103.34%
[3]
  solubility: 550 mg/mL (≈ 3660 mM)
[4]; in the presence of insulin
  xylose in cytosol at equilibrium: 80%
  xylose in plasma at equilibrium: 20%
[4]; with insulin
  increase of penetration rate of D-xylose into the cells: two to five times
[5]
  effect on glycated hemoglobin (HbA1c) levels: little or no effect
[6]
  side effects: laxative effects in adults, diarrhea, nausea, and vomiting
[7]
  stimulation of glycosaminoglycans: proven glycosaminoglycan stimulators of several cell types
[8]; Cytotoxicity percentage, D-xylose 3.25 mM
  cytotoxicity at 48 h, 3250 µM: 5.24%
[8]; Cytotoxicity percentage, D-xylose 26 mM
  cytotoxicity at 48 h, 26000 µM: 9.04%
[8]; Cytotoxicity percentage, D-xylose 52 mM
  cytotoxicity at 48 h, 52000 µM: 12.1%
[8]; Cytotoxicity percentage, D-xylose 104 mM
  cytotoxicity at 48 h, 104000 µM: 14.1%
[8]; Viability percentage, D-xylose 1.625 mM
  viability at 48 h, 1625 µM: 99.5%
[8]; Viability percentage, D-xylose 3.25 mM
  viability at 48 h, 3250 µM: 94.8%
[8]; Viability percentage, D-xylose 6.5 mM
  viability at 48 h, 6500 µM: 89.8%
[8]; Viability percentage, D-xylose 13 mM
  viability at 48 h, 13000 µM: 90.1%
[8]; Viability percentage, D-xylose 26 mM
  viability at 48 h, 26000 µM: 91%
[8]; Viability percentage, D-xylose 52 mM
  viability at 48 h, 52000 µM: 87.9%
[8]; Viability percentage, D-xylose 104 mM
  viability at 48 h, 104000 µM: 85.9%
[9]; 48 h, MTT
  median cytotoxic concentration (TC50): 260.3
[9]; D-xylose 1.625 mM
  Results for Cytotoxicity (MTT readout): 2.399 and 2.351 and 2.424
[9]; D-xylose 1.625 mM, 1625 µM
  Cytotoxicity percentage: 0.47% and 2.50% and −0.58%
  Viability percentage: 97.50% and 100.58%
[9]; D-xylose 3.25 mM
  Results for Cytotoxicity (MTT readout): 2.286 and 2.266 and 2.242
[9]; D-xylose 3.25 mM, 3250 µM
  Cytotoxicity percentage: 6.09% and 7.10%
  Viability percentage: 93.91% and 92.90%
[9]; D-xylose 6.5 mM
  Results for Cytotoxicity (MTT readout): 2.168 and 2.211 and 2.316
[9]; D-xylose 6.5 mM, 6500 µM
  Cytotoxicity percentage: 10.22% and 8.41% and 3.98%
  Viability percentage: 91.59% and 96.02%
[9]; D-xylose 13 mM
  Results for Cytotoxicity (MTT readout): 2.175 and 2.293 and 2.032
[9]; D-xylose 13 mM, 13000 µM
  Viability percentage: 95.05% and 84.04%
[9]; D-xylose 26 mM
  Results for Cytotoxicity (MTT readout): 2.196 and 2.137 and 2.158
[9]; D-xylose 26 mM, 26000 µM
  Cytotoxicity percentage: 11.53% and 10.64%
  Viability percentage: 88.47% and 89.36%
[9]; D-xylose 52 mM
  Results for Cytotoxicity (MTT readout): 2.123 and 2.266 and 2.199
[9]; D-xylose 52 mM, 52000 µM
  Cytotoxicity percentage: 6.09% and 8.91%
  Viability percentage: 93.91% and 91.09%
[9]; D-xylose 104 mM
  Results for Cytotoxicity (MTT readout): 2.075 and 2.027 and 2.064
[9]; D-xylose 104 mM, 104000 µM
  Cytotoxicity percentage: 16.17% and 14.61%
  Viability percentage: 83.83% and 85.39%
[10]
  viability at 48 h, 104000 µM: 20.8%
[11]; read-out: % Infection, D-xylose 1.625 mM, replicate wells
  activity at 1625 µM: 20.8%
[11]; read-out: % Infection, D-xylose 3.250 mM, replicate wells
  activity at 3250 µM: 20.4%
[11]; read-out: % Infection, D-xylose 6.500 mM, replicate wells
  activity at 6500 µM: 18.1%
[11]; read-out: % Infection, D-xylose 13.000 mM, replicate wells
  activity at 13000 µM: 20.4%
[11]; read-out: % Infection, D-xylose 26.000 mM, replicate wells
  activity at 26000 µM: 20.6%
[11]; read-out: % Infection, D-xylose 52.000 mM, replicate wells
  activity at 52000 µM: 20.2%
[11]; read-out: % Infection, D-xylose 104.000 mM, replicate wells
  activity at 104000 µM: 14.9%
[12]; 6 h pre-treatment, 0.328125 mM
  absorbance at 570 nm: 0.067 and 0.073 and 0.088
[12]; 6 h pre-treatment, 0.65625 mM
  absorbance at 570 nm: 0.08 and 0.081 and 0.085
[12]; 6 h pre-treatment, 0.65625 mM, 656.25 µM
  Viability percentage: −8.66% and −7.49% and −2.79%
[12]; 6 h pre-treatment, 1.3125 mM
  absorbance at 570 nm: 0.08 and 0.099 and 0.091
[12]; 6 h pre-treatment, 2.625 mM
  absorbance at 570 nm: 0.075 and 0.121 and 0.124
[12]; 6 h pre-treatment, 5.25 mM
  absorbance at 570 nm: 0.087 and 0.106 and 0.098
[12]; 6 h pre-treatment, 10.5 mM
  absorbance at 570 nm: 0.102 and 0.096
[12]; 6 h pre-treatment, 21 mM
  absorbance at 570 nm: 0.116 and 0.109 and 0.098
[12]; 6 h pre-treatment, 42 mM
  absorbance at 570 nm: 0.095 and 0.09 and 0.108
[12]; Severe acute respiratory syndrome coronavirus 2, Vero C1008, in Chlorocebus sabaeus, 72 h, read-out: Viability percentage, 6 h pre-treatment, 10.5 mM
  viability at 10500 µM: 17.2%
[12]; Severe acute respiratory syndrome coronavirus 2, Vero C1008, in Chlorocebus sabaeus, 72 h, read-out: Viability percentage, at time of infection, 0.65625 mM
  viability at 656.25 µM: 10.1%
[12]; Severe acute respiratory syndrome coronavirus 2, co-administration of D-xylose and SARS-CoV-2
  IC50: 95.5 mM
[12]; Severe acute respiratory syndrome coronavirus 2, pre-incubation of D-xylose 6 h prior to SARS-CoV-2 infection
  IC50: 26.2 mM
[12]; at time of infection, 0.328125 mM
  absorbance at 570 nm: 0.088 and 0.087
[12]; at time of infection, 0.328125 mM, 328.125 µM
  Viability percentage: 0.73% and −0.44%
[12]; at time of infection, 0.65625 mM
  absorbance at 570 nm: 0.096 and 0.099 and 0.101
[12]; at time of infection, 0.65625 mM, 656.25 µM
  Viability percentage: 13.66% and 16.01%
[12]; at time of infection, 1.3125 mM
  absorbance at 570 nm: 0.096 and 0.094 and 0.091
[12]; at time of infection, 1.3125 mM, 1312.5 µM
  Viability percentage: 7.78% and 4.26%
[12]; at time of infection, 2.625 mM
  absorbance at 570 nm: 0.141 and 0.113 and 0.103
[12]; at time of infection, 5.25 mM
  absorbance at 570 nm: 0.09 and 0.137 and 0.126
[12]; at time of infection, 10.5 mM
  absorbance at 570 nm: 0.109 and 0.131 and 0.107
[12]; at time of infection, 21 mM
  absorbance at 570 nm: 0.111 and 0.151 and 0.113
[12]; at time of infection, 42 mM
  absorbance at 570 nm: 0.059 and 0.095 and 0.09
